Laboratory results as given in paper PMC11277446, “Discovery of Cell-Permeable Allosteric Inhibitors of Liver Pyruvate Kinase: Design and Synthesis of Sulfone-Based Urolithins” (International Journal of Molecular Sciences, 2024).
pIC50: −log10 of the molar value. Values belong to the molecule of their own block, whether it stands above or below them.

How the values were obtained:
PKL [1] = target: T1, PKL (Homo sapiens, UniProt P30613); assay: Pyruvate kinase activity kinetic assay on HepG2 KO (PKL only) cell protein lysate; assay type: biochemical; conditions: read-out: IC50 of PKL enzymatic activity inhibition
T1 construct: HepG2 KO cells were lysed and protein lysated with CelLytic M; host or cells: HepG2 PKM CRISPR KO cells

PKL [2] = target: T1, PKL; assay: as above; assay type: biochemical
Method: (§1) HepG2 KO cells were lysed and protein lysated with CelLytic M (C2978, Sigma-Aldrich, St. Louis, MO, USA) lysis buffer. The effect of 10 µM compounds on pyruvate kinase activity on protein lysate was measured with the Pyruvate Kinase Assay Kit (ab83432, Abcam, Cambridge, UK), followed by the manufacturer’s instructions. 2 × 10^4 HepG2 WT cells and 1 × 10^5 HepG2 KO cells were seeded into 96-well plates for a pyruvate kinase activity assay on cells. Drugs were treated at 20 µM concentration on the cell for 4 h and washed with 250 µL of PBS. Cells were lysed with 50 µL PK assay buffer (ab83432, Abcam) and started reaction and kinetic O.D measurement with 50 µL PK assay buffer that contained the assay component (ab83432, Abcam). O.D. values were measured with a microplate reader (Hidex Sense Beta Plus, Turku, Finland) at 570 nm wavelength.

PKL [3] = target: T1, PKL; assay: Cellular Thermal Shift Assay (CETSA), PKL; assay type: cell-based; conditions: HepG2 WT cells, 2 h treatment, 60 °C heat shock 5 min, western blot
Method: (§2) HepG2 WT cells were trypsinized and transferred into a 1.5 mL tube at 500,000 cells per mL concentration. Compound 15e was treated with 10 µM and 20 µM in the 1.5 mL tube and incubated for 2 h in a 37 °C CO2 incubator. Tubes sustained heat shock at 60 °C for 5 min. with a pre-heated heat block. After centrifugation for heated cells at 13,000 rpm for 1 min, cell pellets were lysed with 50 µL of Native lysis Buffer (ab156035, Abcam). Centrifugation was again used to purify soluble proteins in a lysed solution, and the same volume (9 µL) of each group was analyzed using Western blot.

PKL [4] = assay: Western blot of DNL pathway proteins in HepG2 steatosis model, PKL; assay type: cell-based, human; conditions: 5 µM, one week
Method: (§3) After steatosis induction with a designated concentration of compounds, whole cell lysate was prepared with CelLytic M (C2978, Sigma-Aldrich) buffer. SDS PAGE was performed using Mini-PROTEAN® TGX™ Precast Gels (Bio-Rad, Hercules, CA, USA) and transferred using the Trans-Blot® Turbo™ Transfer System (Bio-Rad). FASN (ab22759, Abcam), ChREBP (92809, Abcam), PKL (06653, Sigma), PKM (4053S, Cell Signaling Technology, Danvers, MA, USA), β-actin (ab8227, Abcam), and GAPDH (sc-47724, Santa Cruz Biotechnology, Inc., Dallas, TX, USA) were blotted as primary antibodies overnight. Secondary antibodies, Goat Anti-Rabbit HRP (ab205718, Abcam) and goat anti-mouse IgG-HRP (sc2005, Santa Cruz Biotechnology, Inc.), were blotted for one hour. The protein band was detected with ImageQuantTMLAS 500 (29-0050-63, GE Healthcare Bio-Sciences AB, Uppsala, Sweden).

PKM [5] = target: T2, PKM (Homo sapiens, UniProt P14618); assay: Cellular Thermal Shift Assay (CETSA), PKM; assay type: cell-based; conditions: HepG2 WT cells, 2 h treatment, 60 °C heat shock 5 min, western blot
T2 construct: HepG2 WT cells were trypsinized and transferred into a 1.5 mL tube; host or cells: HepG2 WT cells
Method: as §2

PKL in HepG2 KO cells = target: T3, PKL in HepG2 KO cells (Homo sapiens, UniProt P30613); assay: Pyruvate kinase activity assay on compound-treated HepG2 KO cells (whole-cell assay); assay type: cell-based
T3 construct: host or cells: HepG2 PKM CRISPR KO cells
Method: as §1

[6] = system: HepG2 de novo lipogenic (DNL) steatosis model; assay: MTT cell viability assay in HepG2 DNL steatosis model; assay type: cell-based, human
Method: HepG2 wild-type cells and HepG2 PKM CRISPR KO cells were purchased from the genome engineering company Synthego (Menlo Park, CA, USA). Cells were maintained with growth media RPMI 1640 (R2405, Sigma-Aldrich) and supplemented with 10% fetal bovine serum (FBS, F7524, Sigma-Aldrich) and 1% P/S (P4333, Sigma-Aldrich). Steatosis induction media was prepared as DMEM high glucose (D0819, Sigma-Aldrich) with 10% FBS, 1% P/S media supplemented with 10 µg/mL insulin (I9278, Sigma-Aldrich), and 10 µM T0901317 (T2320, Sigma-Aldrich) for one week. HepG2 cells were seeded 6 × 10^4 cells per well into a 96-well plate for TAG and MTT assays after steatosis and 1 × 10^6 cells per well into a 6-well plate for western blot analysis after steatosis. […]
HepG2 cells were seeded at 6 × 10^4 cells per well into 96-well plates and induced steatosis for one week with a designated concentration of small molecules. After steatosis induction, cells were washed with 200 µL of PBS, and triglyceride contents were measured by the Triglyceride Assay Kit-Quantification (ab65336, Abcam) following the manufacturer’s instructions. O.D. values were detected with a microplate reader at 570 nm (Hidex Sense Beta Plus). […] Cell viability was analyzed by measuring the absorbance of the dissolved formazan in a microplate reader at a wavelength of 570 nm with a microplate reader (Hidex Sense Beta Plus).

[7] = system: HepG2 de novo lipogenic (DNL) steatosis model; assay: TAG measurement in HepG2 DNL steatosis model; assay type: cell-based, human; conditions: one week
Method: HepG2 wild-type cells and HepG2 PKM CRISPR KO cells were purchased from the genome engineering company Synthego (Menlo Park, CA, USA). Cells were maintained with growth media RPMI 1640 (R2405, Sigma-Aldrich) and supplemented with 10% fetal bovine serum (FBS, F7524, Sigma-Aldrich) and 1% P/S (P4333, Sigma-Aldrich). Steatosis induction media was prepared as DMEM high glucose (D0819, Sigma-Aldrich) with 10% FBS, 1% P/S media supplemented with 10 µg/mL insulin (I9278, Sigma-Aldrich), and 10 µM T0901317 (T2320, Sigma-Aldrich) for one week. HepG2 cells were seeded 6 × 10^4 cells per well into a 96-well plate for TAG and MTT assays after steatosis and 1 × 10^6 cells per well into a 6-well plate for western blot analysis after steatosis. HepG2 cells were incubated with steatosis-inducing media for one week by 3 days + 2 days + 2 days with a total of three media exchanges.
HepG2 cells were seeded at 6 × 10^4 cells per well into 96-well plates and induced steatosis for one week with a designated concentration of small molecules. After steatosis induction, cells were washed with 200 µL of PBS, and triglyceride contents were measured by the Triglyceride Assay Kit-Quantification (ab65336, Abcam) following the manufacturer’s instructions. O.D. values were detected with a microplate reader at 570 nm (Hidex Sense Beta Plus). A 5 mg/mL MTT (M2128, Sigma-Aldrich) solution in PBS (10 µL) was added to each well for the MTT assay. After 1 h, the MTT solution and all media were removed from the wells. 100 μL of DMSO was added and mixed to dissolve the formazan crystals. Cell viability was analyzed by measuring the absorbance of the dissolved formazan in a microplate reader at a wavelength of 570 nm with a microplate reader (Hidex Sense Beta Plus).

ChREBP = assay: Western blot of DNL pathway proteins in HepG2 steatosis model, ChREBP; assay type: cell-based, human; conditions: 5 µM, one week
Method: as §3

[8] = system: PK activity in HepG2 WT cells (PKM and PKL); assay: Pyruvate kinase activity assay on compound-treated HepG2 WT cells; assay type: cell-based, human; conditions: 20 µM, 4 h
Method: as §1

PKM [9] = assay: Western blot of DNL pathway proteins in HepG2 steatosis model, PKM; assay type: cell-based, human; conditions: 5 µM, one week
Method: as §3

FASN = assay: Western blot of DNL pathway proteins in HepG2 steatosis model, FASN; assay type: cell-based, human; conditions: 5 µM, one week
Method: as §3

PKL [10] = conditions: Figure 2, background data; cited from earlier work
PKL [11] = system: PKL; set-up: method as in PMID 36753880; conditions: 10 μM in liver cell lysate; cited from earlier work
[12] = system: HepG2 de novo lipogenic (DNL) steatosis model; set-up: method as in PMID 37674987; conditions: cited from earlier work

T3 sequence (P30613 1-543 isoform P30613-2): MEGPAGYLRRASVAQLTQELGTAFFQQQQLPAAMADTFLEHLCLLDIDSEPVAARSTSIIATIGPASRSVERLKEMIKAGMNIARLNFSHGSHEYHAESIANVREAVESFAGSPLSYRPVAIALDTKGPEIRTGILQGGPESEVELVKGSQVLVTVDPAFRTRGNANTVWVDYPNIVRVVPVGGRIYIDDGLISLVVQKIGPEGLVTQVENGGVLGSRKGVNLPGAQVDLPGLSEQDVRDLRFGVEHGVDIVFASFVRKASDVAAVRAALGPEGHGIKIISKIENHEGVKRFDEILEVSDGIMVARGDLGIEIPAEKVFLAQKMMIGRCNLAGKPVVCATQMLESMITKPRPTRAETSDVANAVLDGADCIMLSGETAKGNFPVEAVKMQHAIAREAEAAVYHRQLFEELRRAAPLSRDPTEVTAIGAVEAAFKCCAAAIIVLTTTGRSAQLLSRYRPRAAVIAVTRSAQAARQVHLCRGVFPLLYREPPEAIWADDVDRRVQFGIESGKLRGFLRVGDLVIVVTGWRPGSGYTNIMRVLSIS
T1 sequence (P30613 1-543 isoform P30613-2): as above
T2 sequence (P14618 2-531 limits assumed): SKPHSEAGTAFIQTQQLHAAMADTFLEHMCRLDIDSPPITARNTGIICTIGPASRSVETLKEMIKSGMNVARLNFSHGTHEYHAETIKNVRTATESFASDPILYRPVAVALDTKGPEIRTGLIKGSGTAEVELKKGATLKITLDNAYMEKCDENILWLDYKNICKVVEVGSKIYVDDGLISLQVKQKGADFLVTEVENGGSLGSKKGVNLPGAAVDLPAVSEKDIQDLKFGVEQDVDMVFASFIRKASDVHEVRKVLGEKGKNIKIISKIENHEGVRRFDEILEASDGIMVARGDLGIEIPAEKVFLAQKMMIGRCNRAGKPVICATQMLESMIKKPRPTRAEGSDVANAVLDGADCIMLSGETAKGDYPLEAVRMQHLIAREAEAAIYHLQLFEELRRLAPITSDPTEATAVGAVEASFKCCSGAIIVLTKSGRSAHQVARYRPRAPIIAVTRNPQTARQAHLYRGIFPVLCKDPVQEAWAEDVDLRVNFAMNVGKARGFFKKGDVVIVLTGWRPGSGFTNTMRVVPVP

SMILES: O=S(=O)(NCc1ccccc1)c1cc(O)c(O)cc1-c1ccc(O)c(O)c1 [9d, N-benzyl-3′,4,4′,5-tetrahydroxy-[1,1′-biphenyl]-2-sulfonamide]
pIC50 (PKL [1]): 5.37
inhibition at 10 µM (PKL [2]): 40.9%

SMILES: O=c1oc2c(O)c(O)cc3c(=O)oc4c(O)c(O)cc1c4c23 [Ellagic acid, ellagic acid]
inhibition on whole cell assay (PKL [10]): didn't observe inhibition on whole cell assay
inhibition of PKL (PKL [11]): 21%

SMILES: O=c1oc2cc(O)ccc2c2cc(O)c(O)cc12 [Urolithin C, urolithin C, reference compound]
pIC50 (PKL [1]): 5.33
inhibition at 10 µM (PKL [2]): 33%
PKL inhibition in whole cells (PKL in HepG2 KO cells; 20 µM, 4 h, HepG2 KO cells): did not inhibit PKL activity in cells
inhibition of PKL (PKL [11]): 33%

SMILES: N#Cc1c(NC(=O)c2cccc3ccccc23)sc2c1CCCC2 [JNK-IN-5A]
effect on TAG [12]: reduced TAG

Continued, in another order:

pIC50 (PKL [1]): 4.73
inhibition at 10 µM (PKL [2]): 44.1%
SMILES: O=S(=O)(NCc1ccc(F)cc1)c1cc(O)c(O)cc1-c1ccc(O)c(O)c1 [12d, N-(4-fluorobenzyl)-3′,4,4′,5-tetrahydroxy-[1,1′-biphenyl]-2-sulfonamide]

pIC50 (PKL [1]): 4.94
inhibition at 10 µM (PKL [2]): 50.8%
SMILES: O=S1(=O)c2cc(O)c(O)cc2-c2cc(O)ccc2N1Cc1ccc(F)cc1 [18a, 6-(4-fluorobenzyl)-2,3,9-trihydroxy-6H-dibenzo[c,e][1,2]thiazine 5,5-dioxide]

pIC50 (PKL [1]): 4.76
inhibition at 10 µM (PKL [2]): 47.6%
SMILES: O=S1(=O)c2cc(O)c(O)cc2-c2cc(O)ccc2N1Cc1ccccc1 [15a, 6-benzyl-2,3,9-trihydroxy-6H-dibenzo[c,e][1,2]thiazine 5,5-dioxide]

pIC50 (PKL [1]): 5.15
inhibition at 10 µM (PKL [2]): 29.8%
SMILES: O=S1(=O)c2cc(O)c(O)cc2-c2cc(O)c(O)cc2N1Cc1ccccc1 [15d, 6-benzyl-2,3,8,9-tetrahydroxy-6H-dibenzo[c,e][1,2]thiazine 5,5-dioxide]

pIC50 (PKL [1]): 4.97
decrease in PKL level (CETSA) (PKL [3]): 38%
inhibition at 10 µM (PKL [2]): 42.9%
increase in PKM level (CETSA) (PKM [5]): 12%
activity at 20 µM (PKL in HepG2 KO cells; 20 µM in culture media for 4 h, HepG2 KO cells): 67.1%
PKL inhibition in whole cells (PKL in HepG2 KO cells; 20 µM, 4 h, HepG2 KO cells): significant PKL inhibition
inhibition at 20 µM (PKL in HepG2 KO cells; 20 µM, 4 h, HepG2 KO cells (PKL only), Figure 6a, read-out: inhibition of PK activity): 25%
SMILES: O=S1(=O)c2cc(O)c(O)cc2-c2ccc(C(F)(F)F)cc2N1Cc1ccccc1 [15e, 6-benzyl-2,3-dihydroxy-8-(trifluoromethyl)-6H-dibenzo[c,e][1,2]thiazine 5,5-dioxide]
reduction in expression level of PKL (PKL [4]): 45%
cytotoxicity ([6]; 5 µM to 0.625 µM, one week): did not show cytotoxicity
toxicity ([6]; 10 µM, one-week DNL steatosis procedure): high toxicity
TAG contents ([7]; 0.625 µM): 80.4% ± 3.2
TAG contents ([7]; 1.25 µM): 62.7% ± 2.9
TAG contents ([7]; 2.5 µM): 56.3% ± 1.9
TAG contents ([7]; 5 µM): 55.6% ± 2.4
protein level of ChREBP (ChREBP): remained unaffected
activation of PK activity [8]: 9%
protein level of PKM (PKM [9]): remained unaffected
reduction in expression level of FASN (FASN): up to 79%

melting point: 189 to 190 °C
SMILES: O=S1(=O)c2cc(O)c(O)cc2-c2ccc(C(F)(F)F)cc2N1Cc1ccc(F)cc1 [18e, 6-(4-fluorobenzyl)-2,3-dihydroxy-8-(trifluoromethyl)-6H-dibenzo[c,e][1,2]thiazine 5,5-dioxide]
